Laboratory results from US12329137B2, “Method of preparing mouse model of herpes” (AJOU UNIVERSITY INDUSTRY-ACADEMIC COOPERATION FOUNDATION, priority 2019, dated 2025).

Key:
Assay type in all cases: in vivo, ICR mice
[1] = test system: DX5+ immune-related cells; experiment: Flow cytometry frequency of DX5+ cells in peripheral blood leukocytes; conditions: HSV-1 inoculated mice
Procedure: (§1) The ear inner conch of a large number of 5-week-old ICR mice bred and reared in SPF (specific pathogen free) conditions was injured by being scratched with an injection needle at a strength sufficient to prevent blood from bleeding out, then the injured site was first inoculated with 20 μL of HSV-1 (herpes simplex virus type 1, F strain) solution (1×10^6 pfu/mL), and the mice were reared for 10 days. Next, the same injured site was secondarily inoculated with the same dose of HSV-1. One time a day for 5 days from the day after the first inoculation had been performed and one time a day for 5 days from the day after the second inoculation had been performed, hydrocortisone was intraperitoneally injected into each mouse at 50 μg/day to 500 μg/day. Thereafter, the faces of the mice were observed, mice having blisters formed around the lips were selected, and these were used as mouse models of herpes (FIG. 1).
(§2) Each mouse model of herpes was prepared by way of the method of Example 1 except that hydrocortisone was administered at about 50 μg/day, 150 μg/day, or 500 μg/day. Thereafter, peripheral blood was collected from each of the mouse models of herpes, peripheral blood leukocytes was isolated and obtained from the collected blood, and the frequencies of immune-related cells (CD4+, CD8+, and DX5+) contained in the peripheral blood leukocytes were measured and comparatively analyzed via flow cytometry (Tables 1 and 2). In this case, mouse models of herpes prepared without administration of hydrocortisone were used as a control group.

[2] = test system: herpes simplex virus type 1 (HSV-1); experiment: Prevalence rate of herpes in mice given HSV-1 with hydrocortisone
Procedure: as §1

[3] = test system: CD8+ immune-related cells; experiment: Flow cytometry frequency of CD8+ cells in peripheral blood leukocytes; conditions: HSV-1 inoculated mice
Procedure: as §1, §2

[4] = test system: CD4+ immune-related cells; experiment: Flow cytometry frequency of CD4+ cells in peripheral blood leukocytes; conditions: HSV-1 inoculated mice
Procedure: as §1, §2

[5] = hydrocortisone 50 μg/day intraperitoneal
[6] = hydrocortisone 150 μg/day intraperitoneal
[7] = hydrocortisone 500 μg/day intraperitoneal

For `C[C@]12CCC(=O)C=C1CC[C@@H]1[C@@H]2[C@@H](O)C[C@@]2(C)[C@H]1CC[C@]2(O)C(=O)CO` [Hydrocortisone, hydrocortisone], the “expression frequency of DX5+ cells” value [1, 5] was 4.4 ± 2.4%, the “expression frequency of DX5+ cells” value [1, 6] was 2.89 ± 1.9% and the “expression frequency of DX5+ cells” value [1, 7] was 2.5 ± 1.9%. The “Prevalence rate of herpes (symptomatic mice/total mice)” value ([2]; HSV-1 + hydrocortisone at 150 μg/day in combination) was 14.7% (14/95), the “prevalence rate of herpes relative to mice administered with HSV-1 singly” value ([2]; HSV-1 + hydrocortisone at 150 μg/day in combination vs HSV-1 singly) was “about 2.5 times” and the “expression frequency of CD8+ cells” value [3, 5] was 6.44 ± 2.6%. The “expression frequency of CD8+ cells” value [3, 6] was 4.78 ± 1.7%, the “expression frequency of CD8+ cells” value [3, 7] was 4.2 ± 1.7% and the “expression frequency of CD4+ cells” value [4, 5] was 15.8 ± 8.8%. The “expression frequency of CD4+ cells” value [4, 6] was 12.4 ± 7.8% and the “expression frequency of CD4+ cells” value [4, 7] was 12.3 ± 4.7%.
